Data as given in US8236488B2, “Method of screening for therapeutic compounds for vascular disorders and hypertension based on URAT1 activity modulation” (Human Cell Systems, Inc., priority 2003, dated 2012).

Tests used:
Type in all cases: cell-based
rat VSMCs [1] = experiment: 14C-urate uptake into rat VSMCs in the presence of inhibitors or other organic anions; conditions: 20 μM 14C-urate, 37° C., 5 minutes; for uric acid uptake into VSMCs in the presence of another organic anion: 100, 250 or 500 μM PAH or lactate; for uric acid uptake into VSMCs in the presence of organic anion transporter inhibitor: 0.1, 0.5 or 1 mM probenecid or 0.5, 1 or 10 μM benzbromarone
Description: Further, the present inventors examined a mechanism of urate uptake under physiologic conditions (polarized conditions). First, the present inventors examined whether ^14C-urate competed with cold urate for uptake. The ^14C-urate uptake level by rat VSMCs was measured at 37° C. for 5 minutes using an uptake solution containing 20 μM ^14C-urate and 0, 0.1, 1, 5, 10, or 50 mg/dL cold urate. Each of the measurement results is the average±standard deviation of three wells. […] In FIG. 2, a vertical axis represents the ratio (%) of ^14C-urate uptake level determined when the ^14C-urate uptake level in the absence of cold urate is defined as 100%. A horizontal axis represents the concentration of cold urate (mg/dL).
The ^14C-urate uptake level was measured at 37° C. for 5 minutes using an uptake solution containing 20 μM ^14C-urate and 0, 0.1, 0.5 or 1 mM probenecid or 0, 0.5, 1 or 10 μM benzbromarone. Each of the measurement results is the average±standard deviation of three wells. […] In FIGS. 3 and 4, a vertical axis represents the ratio (%) of ^14C-urate uptake level determined when the ^14C-urate uptake level in the absence of probenecid (FIG. 3) or benzbromarone (FIG. 4) is defined as 100%. A horizontal axis in FIG. 3 represents the concentration of probenecid (mM), and a horizontal axis in FIG. 4 represents the concentration of benzbromarone (μM). An asterisk (*) in the FIGS. 3 and 4 indicate that there is a significant difference (p<0.05)
Further, another test was carried out to examine whether ^14C-urate competed with an organic anion such as para-amino hippurate (PAH) or lactate for uptake. The ^14C-urate uptake level by rat VSMCs was measured at 37° C. for 5 minutes using an uptake solution containing 20 μM ^14C-urate and 0, 100, 250 or 500 μM PAH or 0, 100, 250 or 500 lactate. In addition, the ^14C-urate uptake level by rat VSMCs was also measured using an uptake solution containing 20 μM ^14C-urate and 250 μM uric acid (UA). Each of the measurement results is the average±standard deviation of three wells. […] In FIGS. 5 and 6, a vertical axis represents the ratio (%) of ^14C-urate uptake level determined when the ^14C-urate uptake level in the absence of PAH (FIG. 5) or lactate (FIG. 6) is defined as 100%. A horizontal axis in FIG. 5 represents the concentration of PAH (μM), and a horizontal axis in FIG. 6 represents the concentration of lactate (μM). An asterisk (*) in FIGS. 5 and 6 indicate that there is a significant difference (p<0.05).
(§1) In the following experiments, vascular smooth muscle cells (VSMCs) derived from rat aorta were used (see Zhang S, Yang Y, et al., Circulation., 2003; 107, 1539-44). These cells were cultured in Dulbecco' s Modified Eagle Medium (DMEM, GIBCO) containing 10% fetal bovine serum (FBS), 1% glutamine, and 1% penicillin/streptomycin solution (100 units/ml penicillin, 100 μg/mL streptomycin; GIBCO). The cultured VSMCs were transferred into wells of a 35-mm six-well culture plate (NUNC), and were then maintained at 37° C. in an atmosphere of 5% carbon dioxide and 95% air in a humidified tissue culture incubator. The culture medium was replaced every 2 days. The VSMCs used in the experiments were 5th to 12th generation cells.
The VSMCs (4×10^5 cells) were transferred into wells of a six-well culture plate together with 10% FBS-DMEM. After a lapse of one day, the VSMCs were placed in DMEM medium without serum and incubated over night to stop growth. In all the experiments, cells and all the solutions used were maintained at 37° C. […]

rat VSMCs [2] = experiment: VSMC proliferation test (3H-thymidine uptake); conditions: 24 hour incubation; for effect of inhibitor alone on cell proliferation: absence of uric acid
Description: Next, the present inventors examined whether an inhibitor of organic anion transportation inhibited the response of VSMC proliferation. Proliferation of VSMCs after 24 hour incubation was determined by measuring the ^3H-thymidine uptake level. This test was carried out for cases where no uric acid (UA) was present, 3 mg/dL uric acid (UA) was present, 3 mg/dL uric acid and 0.1, 0.5 or 1 mM probenecid were present, and 3 mg/dL uric acid (UA) and 0.5, 1 or 10 μM benzbromarone were present. In addition, the test was also carried out for cases where probenecid was present alone and benzbromarone was present alone. Each of the measurement results is the average±standard deviation of three wells (CPM). FIGS. 7 and 8 show the result of the test carried out to examine the effect of probenecid (FIG. 7) or benzbromarone (FIG. 8) on inhibition of response of VSMC proliferation. In FIGS. 7 and 8, a vertical axis represents the ^3H-thymidine uptake (CPM) level, a horizontal axis represents the concentration of uric acid or the concentration of an inhibitor.
as §1
The VSMCs (4×10^5 cells) were transferred into wells of a six-well culture plate together with 10% FBS-DMEM, and were cultured for 24 hours. Then, the cells were starved for 48 hours in 0.5% FBS-DMEM, and the resting VSMCs were stimulated with 3 mg/dL uric acid containing 1 μCi ^3H-thymidine to detect DNA synthesis. Further, 2 μCi/mL ^3H-thymidine was added to each well 2 hours before harvesting the cells. The cells were washed with ice-cooled PBS three times, and were lysed in 1 mL of 1N NaOH. 0.5 mL of the cell lysate was added to 5 mL of scintillation fluid to measure the ^3H-thymidine uptake level by the cells. The ^3H-thymidine uptake level by the cells was expressed as CMP/well and counted in a liquid scintillation counter. Some experiments were carried out in the presence of different concentrations of probenecid or benzbromarone (organic anion transporter inhibitor).

MCP-1 = experiment: ELISA of MCP-1 protein secreted into culture supernatant of rat VSMCs; conditions: 24 hours
Description: The present inventors have already reported that uric acid induces the production of MCP-1 (see Non-Patent Document 8). The production of MCP-1 in VSMC was examined. Rat VSMCs were cultured for 24 hours, and the amount of MCP-1 secreted into culture supernatant was measured by ELISA. A test was carried out for cases where 3 mg/dL uric acid (UA) was present, 3 mg/dL uric acid and 1 mM probenecid were present, and probenecid was present alone. In FIG. 10, a vertical axis represents the amount of MCP-1 (pg/1000 cells), and a horizontal axis represents cases where nothing was present (No UA), 3 mg/dL uric acid was present (UA), 3 mg/dL uric acid and 1 mM probenecid were present (UA+Prob), and probenecid was present alone (Prob), and two asterisks (**) indicate that there is a significant difference (p<0.05) when compared to a control. […] The VSMCs (5×10^4 cells/well) were placed in wells of a 24-well plate, and serum was deprived after reaching 70% confluence. Then, media with or without 3 mg/dL uric acid was added and the cells were cultured for 24 hours in the presence or absence of 1 mM probenecid. The amount of MCP-1 protein contained in supernatant was measured by ELISA (OptEIA MCP-1 set, BD Pharmingen), and corrected for cell number. Each experiment was repeated three times.

rat VSMCs [3] = experiment: Urate uptake into VSMCs under polarized and depolarized conditions; conditions: 20 μM 14C-urate
Description: Urate uptake into vascular smooth muscle cells (VSMCs) was examined under polarized and depolarized conditions. The ^14C-urate uptake level by VSMCs was measured using an uptake solution containing 20 μM ^14C-urate under polarized conditions (HEPES-physiological saline solution) or depolarized conditions (100 mM KCl uptake solution) for 120 minutes. The ^14C-urate uptake level was measured every one minute. Each of the measurement results is the average±standard deviation of three wells. In FIG. 1, a vertical axis represents the ^14C-urate uptake (CPM) level, a horizontal axis represents time (min), the symbol “□” represents a case where urate uptake was examined under depolarized conditions, and the symbol “♦” represents a case where urate uptake was examined under polarized conditions. […] It can be known that urate is rapidly taken up by rat VSMCs, that under depolarized conditions, urate uptake reaches steady state within about 15 minutes, and that under polarized conditions, urate uptake reaches steady state within about 30 minutes.
Further, in still another experiment, urate uptake was examined under polarized or depolarized conditions to determine whether urate uptake was voltage sensitive. The conditions for the experiment were the same as described above except that a culture solution for polarized conditions and a culture solution for depolarized conditions were different. More specifically, after 12 hour starvation, the serum free medium was removed and replaced with 0.45 mL of HEPES-physiological saline solution (PSS) containing 140 mM NaCl, 4 mM KCl, 2 mMCaCl2, 1 mM MgCl2, 5 mM glucose, and 16 mM HEPES-tris (pH 7.4) for polarized conditions, or 100 mM-KCl uptake solution containing 44 mM NaCl, 100 mM KCl, 2 mM CaCl2, 1 mM MgCl2, 5 mM glucose, and 16 mM HEPES-tris (pH 7.4) for depolarized conditions.

`Nc1ccc(C(=O)NCC(=O)O)cc1` [PAH, para-amino hippurate] was tested, and the “uric acid uptake into VSMCs in the presence of another organic anion” value (rat VSMCs [1]) was “inhibited”.

`CCc1oc2ccccc2c1C(=O)c1cc(Br)c(O)c(Br)c1` [benzbromarone] was tested, and the “uric acid uptake into VSMCs in the presence of organic anion transporter inhibitor” value (rat VSMCs [1]) was “concentration-dependently reduced” and the “effect of inhibitor alone on cell proliferation” value (rat VSMCs [2]) was “The same was observed”.

With `CC(O)C(=O)O` (centres unmarked) [lactate] the “uric acid uptake into VSMCs in the presence of another organic anion” value (rat VSMCs [1]) was “more weakly inhibited”.

For `CCCN(CCC)S(=O)(=O)c1ccc(C(=O)O)cc1` [probenecid], the “uric acid uptake into VSMCs in the presence of organic anion transporter inhibitor” value (rat VSMCs [1]) was “concentration-dependently reduced”, the “uric acid-induced increase in the 3H-thymidine uptake level (VSMC proliferation)” value (rat VSMCs [2]; 3 mg/dL uric acid plus inhibitor) was “concentration-dependently inhibited” and the “effect of inhibitor alone on cell proliferation” value (rat VSMCs [2]) was “little effect on cell proliferation”. The “increase in uric acid-induced production of MCP-1” value (MCP-1; 3 mg/dL uric acid and 1 mM probenecid) was “inhibited” and the “production of MCP-1 with inhibitor alone” value (MCP-1; probenecid alone, no uric acid) was “not inhibited”.

`O=c1[nH]c(=O)c2[nH]c(=O)[nH]c2[nH]1` [uric acid] was tested, and the “urate uptake level, depolarized versus polarized conditions” value (rat VSMCs [3]; up to 120 minutes) was “larger under depolarized conditions than under polarized conditions”, the “time until urate uptake reaches steady state” value (rat VSMCs [3]; depolarized conditions (100 mM KCl uptake solution)) was at most 15 min and the “time until urate uptake reaches steady state” value (rat VSMCs [3]; polarized conditions (HEPES-physiological saline solution)) was at most 30 min. The “competition between 14C-urate and cold urate for uptake by rat VSMCs” value (rat VSMCs [1]; 0.1, 1, 5, 10 or 50 mg/dL cold urate) was “more effectively competed” and the “3H-thymidine uptake level by rat VSMCs” value (rat VSMCs [2]; 3 mg/dL uric acid) was “increased”.
